Results reported in PubChem BioAssay AID256 (DTP/NCI, 2004).
Values joined by “and” are separate entries in the source; they are usually repeats but may differ in a detail not shown here. Equal entries are not always repeated. Toxic doses and inconclusive results are not listed.

Tested on: CD2F1 mice, L1210 leukemia ip, survival T/C
Test: NCI In Vivo Anticancer Drug Screen. Data for tumor model L1210 Leukemia (intraperitoneal) in CD2F1 (CDF1) mice
Details: endpoint: mean survival time, higher = longer survival
How it was run: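 Compound-dosed mice with transplantable tumor versus matched vehicle controls; endpoint ratio T/C reported.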

[1] = dose: 100.0 mg/kg/injection, schedule: Q01DX009 (ip), vehicle: saline with Tween-80
[2] = dose: 200.0 mg/kg/injection, schedule: Q01DX009 (ip), vehicle: saline with Tween-80
[3] = dose: 400.0 mg/kg/injection, schedule: Q01DX009 (ip), vehicle: saline with Tween-80
[4] = dose: 12.5 mg/kg/injection, schedule: Q01DX009 (ip), vehicle: other
[5] = dose: 25.0 mg/kg/injection, schedule: Q01DX009 (ip), vehicle: other
[6] = dose: 50.0 mg/kg/injection, schedule: Q01DX009 (ip), vehicle: other
[7] = dose: 100.0 mg/kg/injection, schedule: Q01DX009 (ip), vehicle: other
[8] = dose: 200.0 mg/kg/injection, schedule: Q01DX009 (ip), vehicle: other
[9] = dose: 100.0 mg/kg/injection, schedule: Q04DX002 (ip), vehicle: saline
[10] = dose: 200.0 mg/kg/injection, schedule: Q04DX002 (ip), vehicle: saline
[11] = dose: 400.0 mg/kg/injection, schedule: Q04DX002 (ip), vehicle: saline
[12] = dose: 100.0 mg/kg/injection, schedule: Q01DX009 (ip), vehicle: saline sonified
[13] = dose: 100.0 mg/kg/injection, schedule: Q01DX001 (ip), vehicle: saline
[14] = dose: 200.0 mg/kg/injection, schedule: Q01DX001 (ip), vehicle: saline
[15] = dose: 400.0 mg/kg/injection, schedule: Q01DX001 (ip), vehicle: saline
[16] = dose: 100.0 mg/kg/injection, schedule: Q04DX003 (ip), vehicle: saline with Tween-80
[17] = dose: 200.0 mg/kg/injection, schedule: Q04DX003 (ip), vehicle: saline with Tween-80
[18] = dose: 400.0 mg/kg/injection, schedule: Q04DX003 (ip), vehicle: saline with Tween-80
[19] = dose: 6.25 mg/kg/injection, schedule: Q01DX009 (ip), vehicle: other

## O=C(O)/C=C\C(=O)O
dose: 0.5 mg/kg/injection, schedule: Q04DX003 (ip), vehicle: saline with Tween-80
  T/C: 107 % of control
dose: 1.0 mg/kg/injection, schedule: Q01DX009 (ip), vehicle: saline
  T/C: 100 % of control
dose: 1.0 mg/kg/injection, schedule: Q04DX003 (ip), vehicle: saline with Tween-80
  T/C: 95 % of control
dose: 1.56 mg/kg/injection, schedule: Q04DX003 (ip), vehicle: saline
  T/C: 89 % of control and 95 % of control
dose: 2.0 mg/kg/injection, schedule: Q01DX009 (ip), vehicle: saline
  T/C: 97 % of control
dose: 3.0 mg/kg/injection, schedule: Q04DX003 (ip), vehicle: saline with Tween-80
  T/C: 103 % of control
dose: 3.13 mg/kg/injection, schedule: Q04DX003 (ip), vehicle: saline
  T/C: 87 % of control and 91 % of control
dose: 6.0 mg/kg/injection, schedule: Q04DX003 (ip), vehicle: saline with Tween-80
  T/C: 103 % of control
dose: 6.25 mg/kg/injection, schedule: Q04DX003 (ip), vehicle: saline
  T/C: 92 % of control and 96 % of control

## C(=C\c1cccnc1)/c1ccncc1
[1]
  T/C: 97 % of control
[2]
  T/C: 95 % of control
[3]
  T/C: 106 % of control

## COc1ccccc1NC(=O)NC1C(OC(C)=O)OC(COC(C)=O)C(OC(C)=O)C1OC(C)=O (configuration not stated)
[4]
  T/C: 93 % of control
[5]
  T/C: 94 % of control
[6]
  T/C: 98 % of control
[7]
  T/C: 94 % of control
[8]
  T/C: 93 % of control

## CNc1nc(N)nc(CN2CCOCC2c2ccccn2)n1 (configuration not stated)
[9]
  T/C: 88 % of control
[10]
  T/C: 114 % of control
[11]
  T/C: 96 % of control

## c1cc2[nH]c3ccncc3c2cn1
dose: 50.0 mg/kg/injection, schedule: Q01DX009 (ip), vehicle: saline sonified
  T/C: 98 % of control
[12]
  T/C: 101 % of control

## COc1ccc(C(O)(CC(=O)O)c2ccc(OC)cc2)cc1
[13]
  T/C: 98 % of control
[14]
  T/C: 95 % of control
[15]
  T/C: 97 % of control

## Cc1cc(C)c(N2C(=O)C=CC2=O)c(C)c1
dose: 6.25 mg/kg/injection, schedule: Q01DX009 (ip), vehicle: saline with Tween-80
  T/C: 94 % of control

## Cc1ccnc(NC2=CC(=O)C(=O)c3ccccc32)c1
[12]
  T/C: 108 % of control
dose: 200.0 mg/kg/injection, schedule: Q01DX009 (ip), vehicle: saline sonified
  T/C: 103 % of control

## CC(C)CCCC(C)C1CCC2C3CC=C4CC(OCCC(C)C)CCC4(C)C3CCC12C (configuration not stated)
[16]
  T/C: 97 % of control
[17]
  T/C: 95 % of control
[18]
  T/C: 88 % of control

## O=C(O)CC(O)C(=O)O.[Fe] (configuration not stated)
[13]
  T/C: 93 % of control

## CC(c1ccccc1)N1CCCOP1(=O)N(CCCl)CCCl (configuration not stated)
[19]
  T/C: 103 % of control
[4]
  T/C: 103 % of control and 94 % of control
[5]
  T/C: 98 % of control and 94 % of control
dose: 31.3 mg/kg/injection, schedule: Q01DX001 (ip), vehicle: other
  T/C: 98 % of control and 112 % of control and 103 % of control
dose: 31.3 mg/kg/injection, schedule: Q01DX001 (ip), vehicle: saline + alcohol
  T/C: 101 % of control
[6]
  T/C: 109 % of control and 94 % of control
dose: 62.5 mg/kg/injection, schedule: Q01DX001 (ip), vehicle: other
  T/C: 98 % of control and 100 % of control and 103 % of control
dose: 62.5 mg/kg/injection, schedule: Q01DX001 (ip), vehicle: saline + alcohol
  T/C: 94 % of control
[7]
  T/C: 115 % of control and 96 % of control
dose: 125.0 mg/kg/injection, schedule: Q01DX001 (ip), vehicle: other
  T/C: 113 % of control and 108 % of control and 100 % of control
dose: 125.0 mg/kg/injection, schedule: Q01DX001 (ip), vehicle: saline + alcohol
  T/C: 97 % of control
[8]
  T/C: 100 % of control
dose: 250.0 mg/kg/injection, schedule: Q01DX001 (ip), vehicle: other
  T/C: 107 % of control and 100 % of control and 103 % of control
dose: 250.0 mg/kg/injection, schedule: Q01DX001 (ip), vehicle: saline + alcohol
  T/C: 97 % of control
dose: 500.0 mg/kg/injection, schedule: Q01DX001 (ip), vehicle: other
  T/C: 100 % of control and 103 % of control
dose: 500.0 mg/kg/injection, schedule: Q01DX001 (ip), vehicle: saline + alcohol
  T/C: 91 % of control

## N#Cc1cn(C2OC(CO)C(O)C2O)c2nc(NN)nc(N)c12 (configuration not stated)
dose: 1.56 mg/kg/injection, schedule: Q01DX005 (ip), vehicle: water
  T/C: 105 % of control
dose: 3.13 mg/kg/injection, schedule: Q01DX005 (ip), vehicle: water
  T/C: 105 % of control
dose: 6.25 mg/kg/injection, schedule: Q01DX005 (ip), vehicle: water
  T/C: 107 % of control
dose: 12.5 mg/kg/injection, schedule: Q01DX005 (ip), vehicle: water
  T/C: 108 % of control
dose: 25.0 mg/kg/injection, schedule: Q01DX005 (ip), vehicle: water
  T/C: 110 % of control
dose: 50.0 mg/kg/injection, schedule: Q01DX005 (ip), vehicle: water
  T/C: 121 % of control
dose: 100.0 mg/kg/injection, schedule: Q01DX005 (ip), vehicle: water
  T/C: 96 % of control

## CNC(=O)Oc1cccc(NC(=O)OCCOC)c1
[16]
  T/C: 99 % of control
[17]
  T/C: 99 % of control
[18]
  T/C: 92 % of control

## CCCCCCCCCCCC(=O)N(CCCC)CCCC
[9]
  T/C: 103 % of control
[10]
  T/C: 103 % of control
[11]
  T/C: 106 % of control

## NC(=O)N(CCO)CCO
dose: 100.0 mg/kg/injection, schedule: Q01DX009 (ip), vehicle: saline
  T/C: 111 % of control
dose: 200.0 mg/kg/injection, schedule: Q01DX009 (ip), vehicle: saline
  T/C: 107 % of control
dose: 400.0 mg/kg/injection, schedule: Q01DX009 (ip), vehicle: saline
  T/C: 101 % of control

## O=C(O)C1C(C(=O)O)C2C3C4C1C1C2C3C41 (configuration not stated)
[16]
  T/C: 108 % of control
[17]
  T/C: 104 % of control
[18]
  T/C: 98 % of control

## Cc1cc(C2(c3cc(C)c(O)c(C(=O)O)c3)OS(=O)(=O)c3ccccc32)cc(C(=O)O)c1O
[13]
  T/C: 104 % of control
[14]
  T/C: 98 % of control
[15]
  T/C: 106 % of control

## [O-]c1cc2c3c(c1)c1cc4c(cc1c[n+]3C=C2)OCO4
dose: 3.13 mg/kg/injection, schedule: Q01DX009 (ip), vehicle: other
  T/C: 100 % of control
dose: 3.13 mg/kg/injection, schedule: Q01DX009 (ip), vehicle: water
  T/C: 114 % of control
[19]
  T/C: 109 % of control
dose: 6.25 mg/kg/injection, schedule: Q01DX009 (ip), vehicle: water
  T/C: 120 % of control and 122 % of control
[4]
  T/C: 110 % of control
dose: 12.5 mg/kg/injection, schedule: Q01DX009 (ip), vehicle: water
  T/C: 124 % of control
[5]
  T/C: 118 % of control
dose: 25.0 mg/kg/injection, schedule: Q01DX009 (ip), vehicle: water
  T/C: 150 % of control
dose: 50.0 mg/kg/injection, schedule: Q01DX009 (ip), vehicle: water
  T/C: 115 % of control
dose: 100.0 mg/kg/injection, schedule: Q01DX009 (ip), vehicle: water
  T/C: 124 % of control

## Cc1cn(CC(=O)C2(O)CCC3C4CCC5=CC(=O)CCC5(C)C4C(=O)CC32C)c(=O)[nH]c1=O (configuration not stated)
dose: 12.5 mg/kg/injection, schedule: Q04DX003 (ip), vehicle: Klucel (hydroxypropylcellulose) (HPC)
  T/C: 94 % of control
dose: 25.0 mg/kg/injection, schedule: Q04DX003 (ip), vehicle: Klucel (hydroxypropylcellulose) (HPC)
  T/C: 105 % of control
dose: 50.0 mg/kg/injection, schedule: Q04DX003 (ip), vehicle: Klucel (hydroxypropylcellulose) (HPC)
  T/C: 94 % of control
dose: 100.0 mg/kg/injection, schedule: Q04DX003 (ip), vehicle: Klucel (hydroxypropylcellulose) (HPC)
  T/C: 94 % of control
dose: 200.0 mg/kg/injection, schedule: Q04DX003 (ip), vehicle: Klucel (hydroxypropylcellulose) (HPC)
  T/C: 94 % of control

## O=C(c1ccccc1Br)C(Br)C(Br)c1ccccc1 (configuration not stated)
[16]
  T/C: 103 % of control
[17]
  T/C: 111 % of control
[18]
  T/C: 100 % of control

## C1CCC(N(C2CCCCC2)C2CCCCC2)CC1
dose: 100.0 mg/kg/injection, schedule: Q01DX001 (ip), vehicle: saline with Tween-80
  T/C: 107 % of control
dose: 200.0 mg/kg/injection, schedule: Q01DX001 (ip), vehicle: saline with Tween-80
  T/C: 104 % of control
dose: 300.0 mg/kg/injection, schedule: Q01DX001 (ip), vehicle: saline with Tween-80
  T/C: 96 % of control

## O=C(O)C(F)(F)F
[1]
  T/C: 100 % of control
dose: 100.0 mg/kg/injection, schedule: Q04DX003 (ip), vehicle: saline
  T/C: 102 % of control
[2]
  T/C: 103 % of control
dose: 200.0 mg/kg/injection, schedule: Q04DX003 (ip), vehicle: saline
  T/C: 96 % of control
[3]
  T/C: 100 % of control
dose: 400.0 mg/kg/injection, schedule: Q04DX003 (ip), vehicle: saline
  T/C: 102 % of control
